Reference: US20070213355A1, “1H-Imidazo[4,5-C]Quinoline Derivatives in the Treatment of Protein Kinase Dependent Diseases” (priority 2003, published 2007)

Target: T1, PDK1 (Homo sapiens, UniProt O15530)
T1 construct: release a DNA fragment encoding amino acids 52-556 of PDK1; made in house; host or cells: Sf9 insect cells (baculovirus)
T1 sequence (O15530 52-556): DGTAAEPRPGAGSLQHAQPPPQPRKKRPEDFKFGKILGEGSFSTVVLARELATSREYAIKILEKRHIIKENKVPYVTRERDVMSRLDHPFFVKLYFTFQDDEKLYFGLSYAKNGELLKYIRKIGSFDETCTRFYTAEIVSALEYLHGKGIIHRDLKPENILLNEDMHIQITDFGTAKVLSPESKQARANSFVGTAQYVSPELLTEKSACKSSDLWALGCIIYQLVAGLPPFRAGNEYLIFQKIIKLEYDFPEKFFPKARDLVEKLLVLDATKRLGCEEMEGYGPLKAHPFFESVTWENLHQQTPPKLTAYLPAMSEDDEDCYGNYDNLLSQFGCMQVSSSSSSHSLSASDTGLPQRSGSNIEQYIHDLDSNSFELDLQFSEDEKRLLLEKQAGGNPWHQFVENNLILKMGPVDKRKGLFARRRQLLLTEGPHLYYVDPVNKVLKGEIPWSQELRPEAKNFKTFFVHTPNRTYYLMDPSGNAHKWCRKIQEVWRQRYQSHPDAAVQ
Test: PDK1 kinase inhibition, purified GST-PDK1, 33P-ATP filter assay
Assay type: biochemical
Conditions: GST-PDK1, 10.0 μM ATP, casein substrate; read-out: IC50 for PDK1 inhibition (range class)
Excerpt: PDK1 inhibition can be measured as follows: Cloning and expression: pCMV-GST-PDK1 (G Thomas, FMI Basel, as described in Pullen, N. et al., Science, 279:707-710 (1998)) is digested with EcoR1 and Sma1 to release a DNA fragment encoding amino acids 52-556 of PDK1. This is subsequently ligated to the vector pFB-G01-GST1 with compatible ends achieved by restriction digestion with EcoR1 and Stu1. The ligation reaction is transformed into XL-1 Blue bacteria and plated on selective LB agar. Resultant colonies are cultured overnight, plasmid DNA extracted and restriction analysed. Colonies that are found to contain plasmids with the correct insert are taken for large-scale plasmid preparation and subsequent sequence analysis to confirm the expected plasmid sequence.
Production of virus: Transfer vectors containing the kinase domain of PDK1 are transfected into the DH10Bac cell line (GIBCO) and the cells are plated on selective agar plates. Colonies without insertion of the fusion sequence into the viral genome (carried by the bacteria) are blue. Single, white colonies are picked and viral DNA (bacmid) is isolated from the bacteria by standard plasmid purification procedures. Sf9 cells or Sf21 cells (American Type Culture Collection) are then transfected in 25 cm^2 flasks with the viral DNA using Celifectin reagent.
Protein expression in Sf9 cells: Virus-containing media is collected from the transfected cell culture and used for infection to increase its titer. Virus-containing media obtained after two rounds of infection is used for large-scale protein expression. For large-scale protein expression 100 cm^2 round tissue culture plates are seeded with 5×10^7 cells/plate and infected with 1 mL of virus-containing media (approx. 5 MOIs). After 3 days, the cells are scraped off the plate and centrifuged at 500 rpm for 5 minutes. Cell pellets from 10-20, 100 cm^2 plates are resuspended in 50 mL of ice-cold lysis buffer (25 mM Tris-HCl, pH 7.5, 2 mM EDTA, 1% NP-40, 1 mM DTT, 1 mMP MSF). The cells are stirred on ice for 15 minutes and then centrifuged at 5,000 rpms for 20 minutes.
Purification of GST-tagged proteins: The centrifuged cell lysate is loaded onto a 2 mL glutathione-sepharose column (Pharmacia) and washed 3× with 10 mL of 25 mM Tris-HCl, pH 7.5, 2 mM EDTA, 1 mM DTT, 200 mM NaCl. The GST-tagged proteins are then eluted by 10 applications (1 mL each) of 25 mM Tris-HCl, pH 7.5, 10 mM reduced-glutathione, 100 mM NaCl, 1 mM DTT, 10% glycerol and stored at −70° C.
Measure of enzyme activity: Tyrosine protein kinase assays with purified GST-PDK1 are carried out in a final volume of 30 μL containing 100 ng of enzyme protein, 50 mM HEPES, pH 7.6, 10 mM MgCl2, 1 mM DTT, 10 μM Na3VO4, 100 μg/mL casein, 1% DMSO, 0.1 mM EGTA, pH 8.0, 10.0 μM ATP and 0.1 μCi [γ-^33P] ATP. The activity is assayed in the presence or absence of inhibitors [compounds of formula (I)] by measuring the incorporation of ^33P from [γ^33P] ATP into appropriate substrates. The assay is carried out in 96-well plates at ambient temperature for 30 minutes under conditions described below and terminated by the addition of 20 μL of 125 mM EDTA. Subsequently, 40 μL of the reaction mixture are transferred onto Immobilon-PVDF membrane (Millipore) previously soaked for 5 minutes with methanol, rinsed with water, then soaked for 5 minutes with 0.5% H3PO4 and mounted on vacuum manifold with disconnected vacuum source. After spotting all samples, vacuum is connected and each well-rinsed with 200 μL 0.5% H3PO4. Membranes are removed and washed 4× on a shaker with 1.0% H3PO4, once with ethanol. Membranes are counted after drying at ambient temperature, mounting in Packard TopCount 96-well frame, and addition of 10 μl/well of Microscint™ (Packard). IC50 values of compounds of formula (I) are calculated by linear regression analysis of the percentage inhibition of each compound in duplicate, at four concentrations (usually 0.01, 0.1, 1 and 10 μM). […]

SMILES	IC50 [µM]
NCCCc1ccc(-n2cnc3cnc4ccc(C#Cc5cccnc5)cc4c32)cc1 [Example 11, 3-[4-(8-Pyridin-3-ylethynyl-imidazo[4,5-c]quinolin-1-yl)-phenyl]-propylamine]	≤ 0.5
NCCc1ccc(-n2cnc3cnc4cc(F)c(C#Cc5ccccc5)cc4c32)cc1 [Example 26, 2-[4-(7-Fluoro-8-phenylethynyl-imidazo[4,5-c]quinolin-1-yl)-phenyl]-ethylamine]	0.5 to 1
COc1ccc(C#Cc2ccc3ncc4ncn(-c5ccc(CCN)cc5)c4c3c2)cc1 [Example 3, 2-{4-[8-(4-Methoxy-phenylethynyl)-imidazo[4,5-c]quinolin-1-yl]-phenyl}-ethylamine]	≤ 0.5
Cc1nc2cnc3ccc(C#Cc4cccnc4)cc3c2n1-c1ccc(CCN)cc1 [Example 35, 2-[4-(2-Methyl-8-pyridin-3-ylethynyl-imidazo[4,5-c]quinolin-1-yl)-phenyl]-ethylamine]	≤ 0.5
NCCCc1ccc(-n2cnc3cnc4ccc(C#Cc5ccc(S(N)(=O)=O)cc5)cc4c32)cc1 [Example 13, 4-{1-[4-(3-Amino-propyl)-phenyl]-1H-imidazo[4,5-c]quinolin-8-ylethynyl}-benzenesulfonamide]	≤ 0.5
COc1ccc(C#Cc2ccc3ncc4nc(C)n(-c5ccc(CCN)cc5)c4c3c2)cc1 [Example 34, 2-{4-[8-(4-Methoxy-phenylethynyl)-2-methyl-imidazo[4,5-c]quinolin-1-yl]-phenyl}-ethylamine]	≤ 0.5
COc1ccc(C#Cc2cc3c(cc2F)ncc2ncn(-c4ccc(CCN)cc4)c23)cc1 [Example 28, 2-{4-[7-Fluoro-8-(4-methoxy-phenylethynyl)-imidazo[4,5-c]quinolin-1-yl]-phenyl}-ethylamine]	≤ 0.5
NCCc1ccc(-n2cnc3cnc4cc(F)c(C#Cc5cccnc5)cc4c32)cc1 [Example 29, 2-[4-(7-Fluoro-8-pyridin-3-ylethynyl-imidazo[4,5-c]quinolin-1-yl)-phenyl]-ethylamine]	0.5 to 1
NCCc1ccc(-n2cnc3cnc4ccc(C#Cc5cccnc5)cc4c32)cc1 [Example 4, 2-[4-(8-Pyridin-3-ylethynyl-imidazo[4,5-c]quinolin-1-yl)-phenyl]-ethylamine]	≤ 0.5
NCCc1ccc(-n2cnc3cnc4cc(F)c(C#Cc5ccc6c(c5)OCO6)cc4c32)cc1 [Example 30, 2-[4-(7-Fluoro-8-benzo[1,3]dioxol-5-ylethynyl-imidazo[4,5-c]quinolin-1-yl)-phenyl]-ethylamine]	0.5 to 1
COc1cccc(C#Cc2ccc3ncc4nc(C)n(-c5ccc(CCN)cc5)c4c3c2)c1 [Example 33, 2-{4-[8-(3-Methoxy-phenylethynyl)-2-methyl-imidazo[4,5-c]quinolin-1-yl]-phenyl}-ethylamine]	0.5 to 1
NCCCc1ccc(-n2cnc3cnc4ccc(C#Cc5ccccc5)cc4c32)cc1 [Example 8, 3-[4-(8-Phenylethynyl-imidazo[4,5-c]quinolin-1-yl)-phenyl]-propylamine]	≤ 0.5
NCCCc1ccc(-n2cnc3cnc4ccc(/C=C/c5ccccc5)cc4c32)cc1 [Example 38, 3-[4-(8-trans-Styryl-imidazo[4,5-c]quinolin-1-yl)-phenyl]-propylamine]	≤ 0.5
COc1cccc(C#Cc2cc3c(cc2F)ncc2ncn(-c4ccc(CCN)cc4)c23)c1 [Example 27, 2-{4-[7-Fluoro-8-(3-methoxy-phenylethynyl)-imidazo[4,5-c]quinolin-1-yl]-phenyl}-ethylamine]	0.5 to 1
COc1cccc(C#Cc2ccc3ncc4ncn(-c5ccc(CCCN)cc5)c4c3c2)c1 [Example 9, 3-{4-[8-(3-Methoxy-phenylethynyl)-imidazo[4,5-c]quinolin-1-yl]-phenyl}-propylamine]	≤ 0.5
NCCCc1ccc(-n2cnc3cnc4ccc(C#Cc5ccc6c(c5)OCO6)cc4c32)cc1 [Example 12, 3-[4-(8-Benzo[1,3]dioxol-5-ylethynyl-imidazo[4,5-c]quinolin-1-yl)-phenyl]-propylamine]	≤ 0.5
NCCCc1ccc(-n2cnc3cnc4cc(Cl)c(C#Cc5cccnc5)cc4c32)cc1 [Example 23, 3-[4-(7-Chloro-8-pyridin-3-ylethynyl-imidazo[4,5-c]quinolin-1-yl)-phenyl]-propylamine]	0.5 to 1
Cc1nc2cnc3ccc(C#Cc4ccccc4)cc3c2n1-c1ccc(CCN)cc1 [Example 32, 2-[4-(2-Methyl-8-phenylethynyl-imidazo[4,5-c]quinolin-1-yl)-phenyl]-ethylamine]	≤ 0.5
COc1ccc(C#Cc2ccc3ncc4ncn(-c5ccc(CCCN)cc5)c4c3c2)cc1 [Example 10, 3-{4-[8-(4-Methoxy-phenylethynyl)-imidazo[4,5-c]quinolin-1-yl]-phenyl}-propylamine]	≤ 0.5
